Experimental data published in US11331333B2, “Treatment of aberrant fibroblast proliferation” (Georg August Universitaet Goettingen Stiftung Oeffentlichen …, priority 2019, dated 2022).

Assays:
[1] = system: primary murine fibroblasts overexpressing EYA1A; test: Proliferative activity of primary murine fibroblasts overexpressing EYA1A; assay type: cell-based, mouse; settings: seeded at 60,000 per well
Source text: FIGS. 12A-12B show the effect of the established EYA1 γH2A.X^[…] tyrosine phosphatase inhibitors Na3VO4 (blocking tyrosine phosphatase activity) and caffeine (blocking ATM-dependent recruitment of EYA1 towards γH2A.X) on γH2A.X^[…] dephosphorylation and fibroblast accumulation. FIG. 12A depicts results of an analysis of photomicrographs of primary murine fibroblast cultures transfected with control plasmids (vector) and plasmids overexpressing […]) or EYA1C (EYA1C^oe). […] FIG. 12B depicts results of an analysis of proliferative activity of primary murine fibroblasts transfected with indicated constructs, seeded at a density of 60,000 per well.

[2] = system: primary murine fibroblast cultures overexpressing EYA1A; test: γH2A.X^pY142 labelling after NCS exposure in fibroblasts overexpressing EYA1A; assay type: cell-based, mouse; settings: 60 minutes after NCS exposure
Source text: FIGS. 12A-12B show the effect of the established EYA1 γH2A.X^pY142 tyrosine phosphatase inhibitors Na3VO4 (blocking tyrosine phosphatase activity) and caffeine (blocking ATM-dependent recruitment of EYA1 towards γH2A.X) on γH2A.X^pY142 dephosphorylation and fibroblast accumulation. FIG. 12A depicts results of an analysis of photomicrographs of primary murine fibroblast cultures transfected with control plasmids (vector) and plasmids overexpressing EYA1A (EYA1A^oe) or EYA1C (EYA1C^oe). Cells were exposed to either Na3VO4 or caffeine and labelled for 7H2A.X^pY142 60 minutes after NCS exposure (n=100 nuclei each, data are presented as means±s.d., **p<0.01, # no significance, values of p were calculated using Student's t test comparing indicated groups). FIG. 12B depicts results of an analysis of proliferative activity of primary murine fibroblasts transfected with indicated constructs, seeded at a density of 60,000 per well. Proliferative activity was determined at indicated time points after exposure to Na3VO4 or caffeine (n=3 independent replicates, data are presented as means±s.d., ***p<0.001, ****p<0.0001, values of p were calculated using one-way ANOVA with Bonferroni post-hoc analysis comparing control and Na3VO4^− or caffeine-treated cultures overexpressing EYA1A). […]

Cn1c(=O)c2c(ncn2C)n(C)c1=O [caffeine]
EYA1A-induced fibroblast accumulation [1]: reversed
EYA1A-induced premature γH2A.X^pY142 dephosphorylation [2]: reversed

[Na+].[Na+].[Na+].[O]=[V]([O-])([O-])[O-] [Na3VO4, sodium orthovanadate]
EYA1A-induced fibroblast accumulation [1]: reversed
EYA1A-induced premature γH2A.X^pY142 dephosphorylation [2]: reversed
